From patent publication US4558033A, “Potentiation of the effects of insulin by peptides” (Amgen, priority 1983, dated 1985)
No end group written: not given here.

Columns and labels:
normal rats [1] = settings: cited from earlier work
Rhesus monkeys = assay: Induced hyperglycemia in Rhesus monkeys, plasma glucose over two hours (Example 6); format: in vivo
Experimental: A study was conducted to determine the effects of deletion peptide on induced hyperglycemia in Rhesus monkeys. Blood samples were taken from normal female monkeys (in three experimental groups of three) five minutes before administration of an oral dose of 3.0 ml/kg of 0.5 g/ml glucose and intramuscular administration of either: (1) 0.5 ml/kg phosphate buffered saline (PBS), pH 7.4; (2) deletion peptide 0.1 ml/kg of 1.0 mg/ml solution in PBS; (3) deletion peptide as above combined with 0.5 ml/kg of 20 mU/ml insulin in PBS; or (4) insulin alone as above. Blood samples were then periodically withdrawn over two hours and analyzed for plasma glucose levels. Plasma glucose level data is set out in Table IV.

[2] = test system: GT-impaired strain of mice (YS/Wf Nctr); settings: cited from earlier work
[3] = test system: adipocytes isolated from normal rats; assay: In vitro glucose utilization of adipocytes isolated from normal rats; format: cell-based
Description: (§1) The present invention has its origins, in part, in the results of an extensive series of controlled experiments designed to study the effects of deletion peptide: (a) on in vivo glucose metabolism in normal rats; (b) on in vivo insulin-stimulated glucose uptake by normal rat liver and skeletal muscle tissue; (c) on growth of hypophysectomized rats; and (d) on in vitro glucose utilization of adipocytes isolated from normal rats.

[4] = test system: mice ob/ob, ob/+, db/db, db/m; assay: Plasma glucose after glucose load, fixed insulin and DP doses, normal and genetically abnormal mice (Example 4); format: in vivo; settings: for Plasma Glucose at 60 min: i.p. glucose, insulin 0.001 mU/10g
Experimental: (§2) A study was conducted to ascertain the effects of fixed amounts of deletion peptide and insulin on various animal models, including rats and normal and genetically abnormal mice.
(§3) Animals in test groups of five each were employed in these procedures. Sprague-Dawley rats weighed approximately 200 grams; homozygous genetically abnormal mice (ob/ob and db/db) had weights in the range of 40 to 60 grams; and heterozygous normal mice (ob/+ and db/m) all weighed approximately 25 grams. Glucose was administered intraperitoneally at a dosage of 0.05 ml/10g of a solution containing 135 mg/ml glucose, except for one group of rats which were given an oral dose of glucose comprising 1 ml of 270 mg/ml glucose solution. Insulin was administered at a dose of 0.001 mU/10g and deletion peptide was simultaneously intraperitoneally administered at a dose of 5.0 μg/10g.
(§4) The results of plasma glucose determinations performed on blood drawn one hour after administration of test materials are set out in Table III, below.

[5] = Ongoing studies of deletion peptide biological activities in in vivo systems; settings: preliminary evidence
Description: The above examples establish that deletion peptide alone has no immediate and direct hypoglyamic effect within the protocols of investigations conducted to date. […] Further, certain of these effects appear to be shared by peptides disclosed and claimed in co-owned, co-pending, concurrently-filed U.S. Patent application Ser. No. 501,024, by the inventor herein and co-inventor Theodore Jones, entitled "Biologically Active Peptides Structurally Related to Regions Within Growth Hormones," the disclosures of which are incorporated by reference herein.

normal dog = settings: portal infusion 1 μg/kg/min
Experimental: Two studies were conducted to determine the effects of deletion peptide on dogs.

[6] = test system: normal rat liver and skeletal muscle tissue; assay: In vivo insulin-stimulated glucose uptake by normal rat liver and skeletal muscle tissue; settings: administration in combination with insulin
Description: as §1

[7] = test system: insulin-stimulated fat cells of older obese rats; settings: in vitro; cited from earlier work
[8] = test system: rats given an intraperitoneal glucose load; assay: Plasma glucose in rats given an intraperitoneal glucose load, increasing insulin doses with and without 100 μg DP (Example 3); format: in vivo; settings: for Plasma Glucose at 60 minutes: i.p. glucose load
Experimental: (§5) A study was conducted to determine the effect on plasma glucose of deletion peptide, with and without insulin, in rats given an intraperitoneal glucose load. Groups of five male Sprague-Dawley rats were involved in this study. All weighed between 160 to 168 grams and were maintained on standard laboratory diet until 18 hours prior to the test procedures. Test groups of fasted rats received, in rapid succession, 1.0 ml of 0.75 M glucose, 10 mU of insulin in admixture with 1% bovine serum albumin (BSA) in normal saline (pH 7.4), and either 0, 25, 50 or 100 μg doses of deletion peptide. Control groups of rats received glucose and 1% BSA in saline with no insulin but with similarly varying levels of deletion peptide. Plasma glucose determinations were made on blood drawn one hour after administration of test substances and the results (means, ± standard errors) of these determinations are set out in Table I below.
A study was conducted under the same general procedures as Example 2 to determine the effect of increasing doses of insulin, with and without 100 μg of deletion peptide, on rats given an intraperitoneal glucose load. The results of plasma glucose determinations on blood drawn after 60 minutes are set out below in Table II.

normal rats [9] = assay: In vivo glucose metabolism in normal rats
Description: as §1

hypophysectomized rats = assay: Growth of hypophysectomized rats; format: in vivo
Description: as §1

[10] = test system: rats given an intraperitoneal glucose load; assay: Plasma glucose in rats given an intraperitoneal glucose load, DP with and without insulin (Example 2); format: in vivo, Sprague-Dawley rats; settings: for Plasma Glucose at 60 minutes: i.p. glucose load
Experimental: as §5

[11] = cited from earlier work
[12] = after hGH administration; cited from earlier work
Sprague-Dawley rats = assay: Plasma glucose after glucose load, fixed insulin and DP doses, rats (Example 4); format: in vivo; settings: Rat (normal), insulin 0.001 mU/10g
Experimental: as §2, §3, §4

[13] = test system: dog, hyperglycemia induced by infusing glucose; assay: Portal infusion of deletion peptide in dog during induced hyperglycemia with fixed insulin levels (Example 5, second study); format: in vivo; settings: basal insulin alone, glucose >200 mg/deciliter
Experimental: In the second study, deletion peptide was infused portally at a rate of 1 μg/kg/min during hyperglycemia induced by infusing glucose through a peripheral catheter (to maintain glucose levels in excess of 200 mg/deciliter). Basal glucagon levels were fixed and insulin levels were fixed either at basal or four-fold basal levels.

rabbits = settings: cited from earlier work
fat cells = settings: compared with the 32-46 peptide findings; cited from earlier work
normal rats [14] = settings: cited from earlier work; remark: listed apart in the source

Substance: EEAYIPKEQKYSFLQ [DP, NH2 -Glu-Glu-Ala-Tyr-Ile-Pro-Lys-Glu-Gln-Lys-Tyr-Ser-Phe-Leu-Gln-COOH]
- late increases in free fatty acids and glycemic effects (normal rats [1]): did not show either the late increases in free fatty acids nor the glycemic effects
- potentiation of insulin effects (Rhesus monkeys; at all post-injection times): potentiated insulin effects
- glucose tolerance [2]: unspecified degree of improvement in glucose tolerance
- insulin-stimulated glucose uptake by isolated adipocytes [3]: no effect on insulin-stimulated glucose uptake
- potentiation of the hypoglycemic activity of insulin ([4]; all animals tested in Example 4 (mice and rats)): potentiated the hypoglycemic activity of insulin
- biological activities in in vivo systems [5]: preliminary evidence of insulin secretory stimulation effects, effects on levels of free fatty acids, and effects on glucose uptake by hepatic and muscle tissue
- plasma and hepatic glucose output (normal dog): minor transient fall
- glycemic effects (normal dog; over a period of two hours): no glycemic effects
- incorporation of labelled glucose into liver and skeletal muscle tissue [6]: caused an alteration in the incorporation of labelled glucose
- glucose utilization of insulin-stimulated fat cells [7]: in vitro increase in glucose utilization
- Plasma Glucose at 60 minutes ([8]; 100 μg DP in 1.0% BSA in saline, 0 mU insulin): 8.1 ± 0.2 mmol/L
- Plasma Glucose at 60 minutes ([8]; 100 μg DP with insulin 7 mU per rat): 7.6 ± 0.1 mmol/L
- Plasma Glucose at 60 minutes ([8]; 100 μg DP with insulin 10 mU per rat): 3.5 ± 0.1 mmol/L
- Plasma Glucose at 60 minutes ([8]; 100 μg DP with insulin 20 mU per rat): 3.1 ± 0.1 mmol/L
- Plasma Glucose at 60 minutes ([8]; 100 μg DP with insulin 40 mU per rat): 2.7 ± 0.1 mmol/L
- hypoglycemia ([8]; deletion peptide in addition to 10 mU insulin): significant degree of hypoglycemia
- potentiation of hypoglycemic effects of insulin ([8]; higher doses of insulin with 100 μg deletion peptide): potentiated
- hepatic glycogen synthesis (normal rats [9]; administered alone): small, insulin-like effects in increasing hepatic glycogen synthesis
- effects of exogenous insulin (normal rats [9]; concurrently administered with exogenous insulin): substantially augmented the effects of exogenous insulin
- hypoglycemic effect (normal rats [9]; deletion peptide alone, normal rats): no hypoglycemic effect
- growth stimulating effect (hypophysectomized rats): no growth stimulating effect
- Plasma Glucose at 60 minutes ([10]; DP 25 μg per rat with 10 mU insulin in 1.0% BSA in saline): 7.5 ± 0.1 mmol/L
- Plasma Glucose at 60 minutes ([10]; DP 25 μg per rat, 1.0% BSA in saline, no insulin, fasted rats): 8.1 ± 0.2 mmol/L
- Plasma Glucose at 60 minutes ([10]; DP 50 μg per rat with 10 mU insulin in 1.0% BSA in saline): 5.7 ± 0.3 mmol/L
- Plasma Glucose at 60 minutes ([10]; DP 50 μg per rat, 1.0% BSA in saline, no insulin, fasted rats): 7.7 ± 0.2 mmol/L
- Plasma Glucose at 60 minutes ([10]; DP 100 μg per rat with 10 mU insulin in 1.0% BSA in saline): 3.5 ± 0.1 mmol/L
- Plasma Glucose at 60 minutes ([10]; DP 100 μg per rat, 1.0% BSA in saline, no insulin, fasted rats): 8.0 ± 0.4 mmol/L
- effect on glycemia ([10]; deletion peptide alone, up to 100 μg/rat): without effect on glycemia
- hypoglycemic effects ([10]; increasing doses of deletion peptide with 10 mU insulin): progressively greater degrees of hypoglycemic effects
- effect on plasma glucose ([10]; lowest dose of deletion peptide given with a low dose of insulin in BSA): small significant decrease in plasma glucose

Substance: hGH positions 1 through 15: fragment duplicating the sequence of amino acid residues at hGH positions 1 through 15 (FPTIPLSRLFDNAML; UniProt P01241 27-41, looked up, fragment)
- effect on glucose uptake ([11]; hGH amino terminal fragment): insulin potentiating effect on glucose uptake

Substance: human growth hormone [hGH]
- blood levels of glucose [12]: initially raise and then lower blood levels of glucose
- free fatty acids [12]: lower free fatty acids within one hour of administration, followed by later increasing circulating fatty acids

Substance: insulin
- Plasma Glucose (Rhesus monkeys; +5 min., oral glucose + i.m. insulin 0.5 ml/kg of 20 mU/ml): 79 ± 9 mg/dL
- Plasma Glucose (Rhesus monkeys; +15 min., oral glucose + i.m. insulin): 72 ± 10 mg/dL
- Plasma Glucose (Rhesus monkeys; +30 min., oral glucose + i.m. insulin): 85 ± 11 mg/dL
- Plasma Glucose (Rhesus monkeys; +45 min., oral glucose + i.m. insulin): 88 ± 13 mg/dL
- Plasma Glucose (Rhesus monkeys; +60 min., oral glucose + i.m. insulin): 109 ± 14 mg/dL
- Plasma Glucose (Rhesus monkeys; +120 min., oral glucose + i.m. insulin): 108 ± 14 mg/dL
- Plasma Glucose (Rhesus monkeys; -5 min. (before administration), oral glucose + i.m. insulin group): 71 ± 3 mg/dL
- Plasma Glucose at 60 min (Sprague-Dawley rats; glucose administered orally): 144 ± 12 mg/dL
- Plasma Glucose at 60 min (Sprague-Dawley rats; i.p. glucose): 121 ± 28 mg/dL
- Plasma Glucose at 60 min ([4]; Mouse db/db): 198 ± 31 mg/dL
- Plasma Glucose at 60 min ([4]; Mouse db/m (normal)): 102 ± 10 mg/dL
- Plasma Glucose at 60 min ([4]; Mouse ob/+ (normal)): 99.5 ± 6 mg/dL
- Plasma Glucose at 60 min ([4]; Mouse ob/ob): 167 ± 26 mg/dL
- hepatic glucose output [13]: only reduced hepatic glucose output
- effect on plasma glucose ([8]; higher doses of insulin (20, 40 mU)): corresponding decreases in plasma glucose
- Plasma Glucose at 60 minutes ([8]; insulin 7 mU per rat, 1.0% BSA in saline, no DP): 8.0 ± 0.3 mmol/L
- change in glycemia compared with the control group ([8]; insulin 7.0 mU/rat, whether or not deletion peptide was concurrently administered): no change in glycemia
- Plasma Glucose at 60 minutes ([8]; insulin 10 mU per rat, 1.0% BSA in saline, no DP): 8.1 ± 0.2 mmol/L
- Plasma Glucose at 60 minutes ([8]; insulin 20 mU per rat, 1.0% BSA in saline, no DP): 7.0 ± 0.1 mmol/L
- Plasma Glucose at 60 minutes ([8]; insulin 40 mU per rat, 1.0% BSA in saline, no DP): 5.2 ± 0.3 mmol/L
- effect on plasma glucose concentration ([8]; insulin alone, 10 mU): without effect on plasma glucose concentration
- Plasma Glucose at 60 minutes ([10]; 10 mU insulin in 1.0% BSA in saline, 0 μg DP, fasted rats): 8.1 ± 0.2 mmol/L
- effect on glycemia ([10]; low dose of insulin in BSA alone (10 mU, 0 DP)): without effect on glycemia

Substance: peptide duplicating residues 176 through 191: peptide duplicating hGH residues 176 through 191 (FLRIVQCRSVEGSCGF; UniProt P01241 202-217, looked up, fragment)
- glycemic effect ([11]; hGH carboxy terminal fragment): hyperglycemic effect

Substance: tetradecapeptide: synthetic tetradecapeptide copying hGH residues at positions 31 through 44 (FEEAYIPKEQKYSF; UniProt P01241 57-70, looked up, fragment)
- in vivo hypoglycemic effect (rabbits): absence of any in vivo hypoglycemic effect
- in vitro effects on fat cells (fat cells): substantially the same in vitro effects on fat cells
- in vivo hypoglycemic effect (normal rats [14]): absence of any in vivo hypoglycemic effect
